Source: patent publication US20220281848A1, “PYRAZOLE-SUBSTITUTED PYRROLIDINONES AS HERBICIDES” (FMC Corporation, priority 2019, published 2022)

Key:
Type in all cases: in vivo
plants = assay: Test D post-emergence, other plants of Tables D2 and D4; conditions: for damage to plant (100=total damage to plant; 0=no damage to plant), ABUTH / damage to plant (100=total damage to plant; 0=no damage to plant), AMARE / damage to plant (100=total damage to plant; 0=no damage to plant), BIDPI / damage to plant (100=total damage to plant; 0=no damage to plant), BRAPL / damage to plant (100=total damage to plant; 0=no damage to plant), CYPES / damage to plant (100=total damage to plant; 0=no damage to plant), DIGSA / damage to plant (100=total damage to plant; 0=no damage to plant), ECHCG / damage to plant (100=total damage to plant; 0=no damage to plant), ELEIN / damage to plant (100=total damage to plant; 0=no damage to plant), EPHHL / damage to plant (100=total damage to plant; 0=no damage to plant), GLXMA / damage to plant (100=total damage to plant; 0=no damage to plant), IPOHE / damage to plant (100=total damage to plant; 0=no damage to plant), ORYSA / damage to plant (100=total damage to plant; 0=no damage to plant), PANMI / damage to plant (100=total damage to plant; 0=no damage to plant), SETFA / damage to plant (100=total damage to plant; 0=no damage to plant), SORVU: post-emergence
Method in brief: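 Damage was rated visually from 0 (none) to 100 (total), at 20 DAA for pre-emergence and 15 d for post-emergence. Plants grew from safener-treated seed in a glasshouse at 24/18° C. or 20/16° C. day/night, 65% humidity, watered twice daily.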

[1] = test system: velvetleaf (Abutilon theophrasti, ABUTH); assay: Test A pre-emergence, velvetleaf; conditions: after 13 d
Method in brief: (§1)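 Seeds sown in pots of standard soil and sprayed one day later, pre-emergence, at 15.625, 62.5 or 250 g/ha in acetone/water (50:50) with 0.5% Tween 20. Grown in glasshouse at 24/16 °C, 14 h light, 65% humidity. Damage scored after 13 d (0 none, 100 total).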

wheat = assay: Test D pre-emergence, wheat seed treated with a herbicide safener; conditions: 100=total damage, 0=no damage
Method in brief: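 Seeds treated with herbicide safener; sown in soil; glasshouse, 16 h light, 65% humidity. Sprayed day 1 (pre) or ~day 12 (post). Spray in 0.2% v/v adjuvant. Scored 0–100 damage: 20 DAA pre, 15 d post.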

[2] = test system: redroot pigweed (Amaranthus retroflexus, AMARE); assay: Test A pre-emergence, redroot pigweed; conditions: after 13 d
Method in brief: as §1

[3] = "Cereals" Postemergent, Rates 130, evaluated after 15 d
[4] = "Cereals" Postemergent, Rates 250, evaluated after 15 d
[5] = "Cereals" Postemergent, Rates 500, evaluated after 15 d

## CN1CC(c2cc(C(F)(F)F)n(C)n2)C(C(=O)Nc2cccc(F)c2C(F)(F)F)C1=O (racemic) [Compound 19]
plants; [3]
  ALOMY damage rating (100=total damage to plant; 0=no damage to plant): 0
  AVEFA damage rating (100=total damage to plant; 0=no damage to plant): 0
  BEAVA damage rating (100=total damage to plant; 0=no damage to plant): 0
  BROTE damage rating (100=total damage to plant; 0=no damage to plant): 0
  BRSNN damage rating (100=total damage to plant; 0=no damage to plant): 0
  CHEAL damage rating (100=total damage to plant; 0=no damage to plant): 0
  GALAP damage rating (100=total damage to plant; 0=no damage to plant): 0
  HORVW damage rating (100=total damage to plant; 0=no damage to plant): 0
  KCHSC damage rating (100=total damage to plant; 0=no damage to plant): 0
  LOLPE damage rating (100=total damage to plant; 0=no damage to plant): 0
  POAAN damage rating (100=total damage to plant; 0=no damage to plant): 0
  POLCO damage rating (100=total damage to plant; 0=no damage to plant): 0
  STEME damage rating (100=total damage to plant; 0=no damage to plant): 0
  VERPE damage rating (100=total damage to plant; 0=no damage to plant): 0
plants; [4]
  ALOMY damage rating (100=total damage to plant; 0=no damage to plant): 0
  AVEFA damage rating (100=total damage to plant; 0=no damage to plant): 10
  BEAVA damage rating (100=total damage to plant; 0=no damage to plant): 10
  BROTE damage rating (100=total damage to plant; 0=no damage to plant): 0
  BRSNN damage rating (100=total damage to plant; 0=no damage to plant): 20
  CHEAL damage rating (100=total damage to plant; 0=no damage to plant): 0
  GALAP damage rating (100=total damage to plant; 0=no damage to plant): 0
  HORVW damage rating (100=total damage to plant; 0=no damage to plant): 0
  KCHSC damage rating (100=total damage to plant; 0=no damage to plant): 0
  LOLPE damage rating (100=total damage to plant; 0=no damage to plant): 0
  POAAN damage rating (100=total damage to plant; 0=no damage to plant): 30
  POLCO damage rating (100=total damage to plant; 0=no damage to plant): 0
  STEME damage rating (100=total damage to plant; 0=no damage to plant): 0
  VERPE damage rating (100=total damage to plant; 0=no damage to plant): 0
plants; [5]
  ALOMY damage rating (100=total damage to plant; 0=no damage to plant): 30
  AVEFA damage rating (100=total damage to plant; 0=no damage to plant): 40
  BEAVA damage rating (100=total damage to plant; 0=no damage to plant): 10
  BROTE damage rating (100=total damage to plant; 0=no damage to plant): 0
  BRSNN damage rating (100=total damage to plant; 0=no damage to plant): 10
  CHEAL damage rating (100=total damage to plant; 0=no damage to plant): 40
  GALAP damage rating (100=total damage to plant; 0=no damage to plant): 20
  HORVW damage rating (100=total damage to plant; 0=no damage to plant): 40
  KCHSC damage rating (100=total damage to plant; 0=no damage to plant): 0
  LOLPE damage rating (100=total damage to plant; 0=no damage to plant): 10
  POAAN damage rating (100=total damage to plant; 0=no damage to plant): 40
  POLCO damage rating (100=total damage to plant; 0=no damage to plant): 0
  STEME damage rating (100=total damage to plant; 0=no damage to plant): 0
  VERPE damage rating (100=total damage to plant; 0=no damage to plant): 10
plants; SINAR, "Cereals" Postemergent, Rates 500, evaluated after 15 d
  SINAR damage rating (100=total damage to plant; 0=no damage to plant): 20
plants; rate 130, evaluated after 15 d
  damage to plant (100=total damage to plant; 0=no damage to plant), ABUTH: 0
  damage to plant (100=total damage to plant; 0=no damage to plant), AMARE: 0
  damage to plant (100=total damage to plant; 0=no damage to plant), BIDPI: 0
  damage to plant (100=total damage to plant; 0=no damage to plant), BRAPL: 60
  damage to plant (100=total damage to plant; 0=no damage to plant), CYPES: 0
  damage to plant (100=total damage to plant; 0=no damage to plant), DIGSA: 60
  damage to plant (100=total damage to plant; 0=no damage to plant), ECHCG: 10
  damage to plant (100=total damage to plant; 0=no damage to plant), ELEIN: 10
  damage to plant (100=total damage to plant; 0=no damage to plant), EPHHL: 0
  damage to plant (100=total damage to plant; 0=no damage to plant), GLXMA: 0
  damage to plant (100=total damage to plant; 0=no damage to plant), IPOHE: 0
  damage to plant (100=total damage to plant; 0=no damage to plant), ORYSA: 0
  damage to plant (100=total damage to plant; 0=no damage to plant), PANMI: 0
  damage to plant (100=total damage to plant; 0=no damage to plant), SETFA: 0
  damage to plant (100=total damage to plant; 0=no damage to plant), SORVU: 0
plants; rate 250, evaluated after 15 d
  damage to plant (100=total damage to plant; 0=no damage to plant), ABUTH: 10
  damage to plant (100=total damage to plant; 0=no damage to plant), AMARE: 10
  damage to plant (100=total damage to plant; 0=no damage to plant), BIDPI: 0
  damage to plant (100=total damage to plant; 0=no damage to plant), BRAPL: 70
  damage to plant (100=total damage to plant; 0=no damage to plant), CYPES: 0
  damage to plant (100=total damage to plant; 0=no damage to plant), DIGSA: 70
  damage to plant (100=total damage to plant; 0=no damage to plant), ECHCG: 20
  damage to plant (100=total damage to plant; 0=no damage to plant), ELEIN: 10
  damage to plant (100=total damage to plant; 0=no damage to plant), EPHHL: 10
  damage to plant (100=total damage to plant; 0=no damage to plant), GLXMA: 0
  damage to plant (100=total damage to plant; 0=no damage to plant), IPOHE: 0
  damage to plant (100=total damage to plant; 0=no damage to plant), ORYSA: 0
  damage to plant (100=total damage to plant; 0=no damage to plant), PANMI: 10
  damage to plant (100=total damage to plant; 0=no damage to plant), SETFA: 50
  damage to plant (100=total damage to plant; 0=no damage to plant), SORVU: 0
plants; rate 500, evaluated after 15 d
  damage to plant (100=total damage to plant; 0=no damage to plant), ABUTH: 20
  damage to plant (100=total damage to plant; 0=no damage to plant), AMARE: 20
  damage to plant (100=total damage to plant; 0=no damage to plant), BIDPI: 10
  damage to plant (100=total damage to plant; 0=no damage to plant), BRAPL: 80
  damage to plant (100=total damage to plant; 0=no damage to plant), CYPES: 0
  damage to plant (100=total damage to plant; 0=no damage to plant), DIGSA: 80
  damage to plant (100=total damage to plant; 0=no damage to plant), ECHCG: 70
  damage to plant (100=total damage to plant; 0=no damage to plant), ELEIN: 60
  damage to plant (100=total damage to plant; 0=no damage to plant), EPHHL: 30
  damage to plant (100=total damage to plant; 0=no damage to plant), GLXMA: 20
  damage to plant (100=total damage to plant; 0=no damage to plant), IPOHE: 20
  damage to plant (100=total damage to plant; 0=no damage to plant), ORYSA: 10
  damage to plant (100=total damage to plant; 0=no damage to plant), PANMI: 40
  damage to plant (100=total damage to plant; 0=no damage to plant), SETFA: 70
  damage to plant (100=total damage to plant; 0=no damage to plant), SORVU: 20
[1]; Pre-Emergence at 15.625 g/ha
  damage to plant (100=total damage; 0=no damage) ABUTH: 0
[1]; Pre-Emergence at 62.5 g/ha
  damage to plant (100=total damage; 0=no damage) ABUTH: 0
[1]; Pre-Emergence at 250 g/ha
  damage to plant (100=total damage; 0=no damage) ABUTH: 0
wheat; rate 15, 20 DAA
  damage to plant, TRZAW: 0
wheat; rate 30, 20 DAA
  damage to plant, TRZAW: 0
wheat; rate 60, 20 DAA
  damage to plant, TRZAW: 0
wheat; rate 130, 20 DAA
  damage to plant, TRZAW: 0
wheat; rate 250, 20 DAA
  damage to plant, TRZAW: 10
wheat; rate 500, 20 DAA
  damage to plant, TRZAW: 60
[2]; Pre-Emergence at 15.625 g/ha
  damage to plant (100=total damage; 0=no damage) AMARE: 0
[2]; Pre-Emergence at 62.5 g/ha
  damage to plant (100=total damage; 0=no damage) AMARE: 0
[2]; Pre-Emergence at 250 g/ha
  damage to plant (100=total damage; 0=no damage) AMARE: 0
